The text below walks through data of patent publication US4520023A, “3-(3-Iodopropargyl)-benzo-1,2,3-triazin-4-ones, and their use in microbicidal agents” (Bayer Aktiengesellschaft, priority 1982, dated 1985).

In brackets after ≈: the same amount, converted by molar mass. Read-outs that look alike come from different tables or passages of the source.

The subject of one assay is Penicillium glaucum. Description: Agar MIC determination, Penicillium glaucum. In kind it is cell-based. The settings on record: 336 h, beerwort/peptone agar, 28° C., 2 weeks. How it is done: (§1) Active compounds according to the invention are added, in concentrations of 0.1 mg/liter to 5,000 mg/liter, to an agar prepared from beerwort and peptone. After storage at 28° C. and 60 to 70% relative atmospheric humidity for 2 weeks, the MIC is determined.

The test system of the next assay is Chaetomium globosum. Description: Agar MIC determination, Chaetomium globosum. In kind it is cell-based. The settings on record: 336 h, beerwort/peptone agar, 28° C., 2 weeks. The procedure:
as §1

Another assay has as its system Aspergillus niger. The assay can be described thus: Agar MIC determination, Aspergillus niger. In kind it is cell-based. The settings on record: 336 h, beerwort/peptone agar, 28° C., 2 weeks. The procedure:
as §1

For another assay, the system named is Trichoderma viride. The assay can be described thus: Agar MIC determination, Trichoderma viride. The assay is classed as cell-based. The settings on record: 336 h, beerwort/peptone agar, 28° C., 2 weeks. The procedure: as §1
For a further assay, the system named is slime organisms. Description: Action against slime organisms in Allens nutrient solution. In kind it is cell-based. The settings on record: 504 h. How it is done:
Compounds according to the invention, dissolved in acetone, are used in concentrations of in each case 0.1 to 100 mg/liter in Allens nutrient solution (Arch. Mikrobiol. 17, 34 to 53 (1952)) containing, in 4 liters of sterile water, 0.2 g of ammonium chloride, 4.0 g of sodium nitrate, 1.0 g of dipotassium hydrogen phosphate, 0.2 g of calcium chloride, 2.05 g of magnesium sulphate, 0.02 g of iron chloride and 1% of caprolactam. Shortly beforehand, the nutrient solution is infected with slime organisms (about 10^6 germs/ml) which have been isolated from the spinning water circulations used in the preparation of polyamide.

The test system of assay [1] is fungi (Aspergillus niger, Aureobasidium pullulans, Alternaria speciales, Penicillium citrinum, Stachybotrys atra, Paecilomyces varioti, Cladosporium herbarum …). Description: Testing of paint films for resistance to mould (Report 219, Defense Standards Laboratories). The settings on record: 1.5 to 2% (or more) based on total solids content. The procedure:
The test is carried out in accordance with Report 219 of the Defense Standards Laboratories Maibyrnong/Australia, as follows: smooth cardboard is coated on both sides with the product to be tested and is dried at room temperature for 8 days. For ageing, part of the coating is kept in running water at 24° C. for 24 hours, part is aerated with fresh air of 40° to 60° C. for 8 days, and part is exposed to a dry Xenon test for 110 hours. 5×5 cm sections of the test pieces thus treated are placed individually in Petri dishes on a glucose nutrient medium, and are contaminated with a spore suspension of the following fungi: Aspergillus niger, Aureobasidium pullulans, Alternaria speciales, Penicillium citrinum, Stachybotrys atra, Paecilomyces varioti, Cladosporium herbarum, Aspergillus ustus or Aspergillus flavus.
The contaminated dishes are kept at 28°-30° C. and 90-95% relative atmospheric humidity, and are evaluated after 3 weeks. Paint films are regarded as mould-resistant if the test pieces remain free from fungi after this test.
A commercially available, alkaline emulsion paint based on polyvinyl acetate is tested for mould resistance by the test method described above.

For the next assay, the system named is Sclerophoma pityophila. Description: Agar MIC determination, Sclerophoma pityophila. Particulars: Sydowia polyspora, 336 h, beerwort/peptone agar, 28° C., 2 weeks. The assay is classed as cell-based. The procedure: as §1
Another assay concerns Aureobasidium pullulans. The assay can be described thus: Agar MIC determination, Aureobasidium pullulans. In kind it is cell-based. Particulars: 336 h, beerwort/peptone agar, 28° C., 2 weeks. The procedure: as §1
A further assay relates to Coniophora cerebella. The assay can be described thus: Agar MIC determination, Coniophora cerebella. In kind it is cell-based. The settings on record: 336 h, beerwort/peptone agar, 28° C., 2 weeks. The procedure:
as §1

The next assay has as its system Alternaria tenuis. The assay can be described thus: Agar MIC determination, Alternaria tenuis. The assay is classed as cell-based. Particulars: Alternaria alternata, 336 h, beerwort/peptone agar, 28° C., 2 weeks. The procedure: as §1
For the next assay, the system named is Lentinus tigrinus. Description: Agar MIC determination, Lentinus tigrinus. Particulars: 336 h, beerwort/peptone agar, 28° C., 2 weeks. In kind it is cell-based. The procedure:
as §1

[2] abbreviates: slime organisms about 10^6 germs/ml, Allens nutrient solution, room temperature, 3 weeks, read-out: MIC.

For `CCCCNC(=O)OCC#CI` [Active compound D, iodopropargyl N-butyl-carbamate, reference compound], the MIC turned out to be 40 µg/mL (≈ 142 µM) with Penicillium glaucum, 60 µg/mL (≈ 213 µM) against Chaetomium globosum, 80 µg/mL (≈ 285 µM) against Aspergillus niger and 140 µg/mL (≈ 498 µM) against Trichoderma viride.

As for `O=c1c2cc([N+](=O)[O-])ccc2nnn1CC#CI` [Active compound B, 3-(3-Iodopropargyl)-6-nitro-benzo-1,2,3-triazin-4-one], the MIC is under 20 µg/mL in the assay on Penicillium glaucum, under 20 µg/mL against Chaetomium globosum, under 20 µg/mL with Aspergillus niger and 20 mg/L (≈ 56.2 µM) in the assay on slime organisms (setting [2]).

With `O=c1c2ccccc2nnn1CC#CI` [Active compound A, 3-(3-Iodopropargyl)-benzo-1,2,3-triazin-4-one], the “mould resistance of paint films” value in assay [1] (alkaline polyvinyl acetate emulsion paint, 3 weeks, 28°-30° C.) was “very good mould-resistant paint films”. The “mould resistance of paint films after ageing” value in [1] (films first subjected to running water 24 hours, fresh air 40° to 60° C. 8 days, or dry Xenon test 110 hours) is reported as “very good mould-resistant paint films”. The MIC was 5 µg/mL (≈ 16.1 µM) in the assay with Penicillium glaucum; 3.5 µg/mL (≈ 11.3 µM) with Sclerophoma pityophila; 5 µg/mL (≈ 16.1 µM) in the assay with Aureobasidium pullulans; under 20 µg/mL against Chaetomium globosum; 0.5 µg/mL (≈ 1.61 µM) in the assay with Coniophora cerebella; 5 µg/mL (≈ 16.1 µM) in the assay with Aspergillus niger. Moreover, the MIC against Alternaria tenuis is 5 µg/mL (≈ 16.1 µM); with slime organisms (read-out: MIC in mg/liter) it was 5 mg/L (≈ 16.1 µM); with Trichoderma viride it was 10 µg/mL (≈ 32.1 µM); in the assay with Lentinus tigrinus, 2 µg/mL (≈ 6.43 µM).

As for `O=c1c2ccc(Cl)cc2nnn1CC#CI` [Active compound C, 3-(3-Iodopropargyl)-7-chloro-benzo-1,2,3-triazin-4-one], the MIC is under 20 µg/mL in the assay with Penicillium glaucum, under 20 µg/mL with Chaetomium globosum, under 20 µg/mL in the assay on Aspergillus niger and 30 mg/L (≈ 86.8 µM) in the assay with slime organisms (setting [2]).
